Experimental data reported in US8367873B2, “Phenyl-substituted bicyclooctane-1,3-dione derivatives” (Bayer Cropscience AG, priority 2008, dated 2013).

Experiments:
Type in all cases: in vivo
Alopecurus myosuroides [1] = experiment: Herbicidal pre-emergence action; conditions: pre-emergence method, 80 g/ha, greenhouse, visual assessment vs untreated controls
Method in brief: (§1)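 Seeds sown in sandy loam and covered with soil; WP-formulated compounds applied as aqueous suspension (600 l/ha water, 0.2% wetting agent) to the soil surface at various rates. Greenhouse-grown; emergence damage scored visually after three weeks versus untreated controls (0% = like control, 100% = plants dead).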

Echinocloa crus-galli [2] = experiment: Herbicidal pre-emergence action; conditions: pre-emergence method, 80 g/ha, greenhouse, visual assessment vs untreated controls
Method in brief: as §1

Lolium multiflorum [3] = experiment: Herbicidal pre-emergence action; conditions: pre-emergence method, 80 g/ha, greenhouse, visual assessment vs untreated controls
Method in brief: as §1

Setaria viridis [4] = experiment: Herbicidal pre-emergence action; conditions: pre-emergence method, 80 g/ha, greenhouse, visual assessment vs untreated controls
Method in brief: as §1

Alopecurus myosuroides [5] = experiment: Herbicidal post-emergence action; conditions: post-emergence method; for herbicidal effect against ALOMY (Alopecurus myosuroides): 80 g/ha; for pest or weed control at 80 g/ha: Alopecurus myosuroides, 504 h, read-out: herbicidal effect against ALOMY (Alopecurus myosuroides)
Method in brief: (§2)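 One-leaf-stage greenhouse plants sprayed with WP at graded amounts (600 l/ha, 0.2% wetting agent); ~3 wk later, visual % effect rated vs untreated controls, 100% = dead, 0% = like control.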

Echinocloa crus-galli [6] = experiment: Herbicidal post-emergence action; conditions: post-emergence method; for herbicidal effect against ECHCG (Echinochloa crus-galli): 80 g/ha; for pest or weed control at 80 g/ha: Echinochloa crus-galli, 504 h, read-out: herbicidal effect against ECHCG (Echinochloa crus-galli)
Method in brief: as §2

Lolium multiflorum [7] = experiment: Herbicidal post-emergence action; conditions: post-emergence method; for herbicidal effect against LOLMU (Lolium multiflorum): 80 g/ha; for pest or weed control at 80 g/ha: Lolium multiflorum, 504 h, read-out: herbicidal effect against LOLMU (Lolium multiflorum)
Method in brief: as §2

Setaria viridis [8] = experiment: Herbicidal post-emergence action; conditions: post-emergence method; for herbicidal effect against SETVI (Setaria viridis): 80 g/ha; for pest or weed control at 80 g/ha: Setaria viridis, 504 h, read-out: herbicidal effect against SETVI (Setaria viridis)
Method in brief: as §2

cereals = experiment: Container trials with cereals in the greenhouse, use of safeners (Mefenpyr 1 day prior to herbicide application)
Protocol: Seeds of monocotylidonous and dicotylidonous weed and crop plants are placed in sandy loam in wood fibre pots, covered with soil and cultivated in a greenhouse under good growth conditions. Two to three weeks after sowing, the test plants are treated at the one-leaf stage. The test compounds, formulated as wettable powders (WP), are then with a water application rate of 600 l/ha (converted), with 0.2% of wetting agent added, sprayed onto the green parts of the plants in different amounts. After the test plants have been kept in the greenhouse under optimum growth conditions for about three weeks, the effect of the preparations is assessed visually in comparison to untreated controls (herbicidal effect in percent: 100% effect=the plants have died, 0% effect=like control plants).
If it is to be additionally tested as to whether safeners can improve the plant compatibility of test substances in the case of crop plants, the following options are used for applying the safeners: • Seeds of the crop plants are, before sowing, dressed with safener substance (the amount of safener stated in percent, based on the weight of the seed) • Before the application of the test substances, the crop plants are sprayed with the safener at a certain application rate per hectare (usually one day before the application of the test substances) • The safener is applied together with the test substance as a tank mix (the amount of safener stated in g/ha or as a ratio, based on the herbicide).
Container Trials with Cereals in the Greenhouse

[9] = tested on: monocotylidonous and dicotylidonous weed and crop plants; experiment: Herbicidal pre-emergence action (other test plants); conditions: pre-emergence method, 80 g/ha, greenhouse, visual assessment vs untreated controls
Method in brief: as §1

[10] = tested on: monocotylidonous and dicotylidonous weed and crop plants; experiment: Herbicidal post-emergence action (other test plants); conditions: post-emergence method; for herbicidal effect against AVEFA (Avena fatua): 80 g/ha; for pest or weed control at 80 g/ha: 504 h, Avena fatua, read-out: herbicidal effect against AVEFA (Avena fatua)
Method in brief: as §2

[11] = 28 days after application, 50 g of a.i./ha
[12] = 28 days after application, 100 g of a.i./ha
[13] = 28 days after application, 12.5 g of a.i./ha
[14] = 28 days after application, 25 g of a.i./ha

Compound | herbicidal effect ALOMY (Alopecurus myosuroides [1]) [%] | herbicidal effect ECHCG (Echinocloa crus-galli [2]) [%] | herbicidal effect LOLMU (Lolium multiflorum [3]) [%] | herbicidal effect SETVI (Setaria viridis [4]) [%] | herbicidal effect against ALOMY (Alopecurus myosuroides) (Alopecurus myosuroides [5]) [%] | herbicidal effect against ECHCG (Echinochloa crus-galli) (Echinocloa crus-galli [6]) [%] | herbicidal effect against LOLMU (Lolium multiflorum) (Lolium multiflorum [7]) [%] | herbicidal effect against SETVI (Setaria viridis) (Setaria viridis [8]) [%] | Summer barley observed (%) (cereals; [11]) | Summer barley observed (%) (cereals; [12]) | Summer wheat observed (%) (cereals; [13]) | Summer wheat observed (%) (cereals; [14]) | Summer wheat observed (%) (cereals; [11]) | Summer wheat observed (%) (cereals; [12]) | herbicidal effect AVEFA [9] [%] | herbicidal effect against AVEFA (Avena fatua) [10] [%] | further results
CCc1cc(C)cc(CC)c1C1=C(O)[C@H]2CC3(C[C@H]2C1=O)OCC(C)CO3 (relative stereo) [I-a-25] | 100 | 90 | 100 | 90 | 100 | 100 | 100 | 100 | 60 | 85 | 10 | 30 | 70 | 85 | 70 | 100 | –
CCc1cc(C)cc(CC)c1C1=C(OC(=O)OC(C)C)[C@H]2C[C@]3(COC(C)(C)O3)C[C@H]2C1=O (relative stereo) [I-c-3] | 100 | 40 | 100 | 70 | 90 | 90 | 100 | 80 | 30 | 95 | 10 | 20 | 60 | 99 | 80 | 80 | Summer barley observed (%) (cereals; [14]): 15%
CCOC(=O)OC1=C(c2c(CC)cc(C)cc2CC)C(=O)[C@@H]2CC3(C[C@H]12)OCCO3 (relative stereo) [I-c-7] | 100 | 100 | 90 | 70 | 90 | 100 | 100 | 80 | – | – | 10 | 30 | 30 | 30 | 70 | 70 | Summer wheat observed (%) (cereals; 10 days after application, 12.5 g of a.i./ha): 40%; Summer wheat observed (%) (cereals; 10 days after application, 25 g of a.i./ha): 50%; Summer wheat observed (%) (cereals; 10 days after application, 50 g of a.i./ha): 60%
CCOC(=O)OC1=C(c2c(CC)cc(C)cc2CC)C(=O)[C@@H]2CC3(C[C@H]12)OCCCCO3 (relative stereo) [I-c-9] | 100 | 100 | 100 | 70 | 90 | 100 | 100 | 90 | – | – | – | 30 | 40 | 50 | 70 | 80 | –
CCOC(=O)OC1=C(c2c(CC)cc(C)cc2CC)C(=O)[C@@H]2CC3(C[C@H]12)OCCCO3 (relative stereo) [I-c-14] | 90 | 90 | 100 | 70 | 90 | 100 | 100 | 100 | 10 | 20 | 40 | 50 | 60 | 70 | 70 | 70 | –
CCc1cc(C)cc(CC)c1C1=C(O)[C@H]2C[C@]3(COC(C)(C)O3)C[C@H]2C1=O [I-a-2] | 90 | 90 | 100 | 50 | – | – | – | – | – | – | 40 | 50 | 60 | – | 50 | – | pest or weed control at 80 g/ha (Alopecurus myosuroides [5]): 100%; pest or weed control at 80 g/ha (Echinocloa crus-galli [6]): 100%; pest or weed control at 80 g/ha (Lolium multiflorum [7]): 100%; pest or weed control at 80 g/ha (Setaria viridis [8]): 90%; pest or weed control at 80 g/ha [10]: 70%
C=C1COC2(C[C@@H]3C(O)=C(c4c(CC)cc(C)cc4CC)C(=O)[C@@H]3C2)OC1 [I-a-3] | 100 | 100 | 100 | 100 | – | – | – | – | 60 | 70 | 10 | 60 | 70 | 85 | 80 | – | pest or weed control at 80 g/ha (Alopecurus myosuroides [5]): 90%; pest or weed control at 80 g/ha (Echinocloa crus-galli [6]): 100%; pest or weed control at 80 g/ha (Lolium multiflorum [7]): 100%; pest or weed control at 80 g/ha (Setaria viridis [8]): 100%; Summer barley observed (%) (cereals; [14]): 20%; pest or weed control at 80 g/ha [10]: 90%
